Experimental data as given in US7244431B2, “Allergy vaccines and their preparation” (priority 2000, dated 2007).

Key:
[1] = system: birch pollen allergic patients; assay: Skin prick testing of allergic patients; assay type: in vivo, human; settings: 100 μg/ml
Protocol: SPTs were performed on the individuals forearms as described ([…]. et al. (1997) J. Clin Invest. 99, 1673-168; Dreborg S: (1989) J. Am. Acad. DerMatol. 21, 820-821). […] In addition standardized skin prick solutions (birch pollen extract and histamine) (Allergopharma, Reinbek, Germany) were tested. Reactions were recorded 20 minutes after SPT by photography and by transferring the ballpoint pen-surrounded wheal area with a scotch tape to paper.

[2] = system: IgE antibodies in sera from birch pollen allergic patients; assay: ELISA detection of peptide- and rBet v 1-specific IgE antibodies; assay type: binding, human
In short: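 IgE binding detected by 1:1000 alkaline-phosphatase mouse monoclonal anti-human IgE after overnight 4 °C incubation with 1:3-diluted sera. Sera came from 60 birch pollen allergic patients (25 male, 35 female, age 19–60) and a non-atopic control.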

LFPKVAPQAISSVENIEGNGGPGTIKKISFC [Peptide P2, Bet v 1-derived synthetic peptide, position aa 30-59, one cysteine added]
mean wheal diameter ([1]; individual 1): 0 mm | mean wheal diameter ([1]; individual 2): 0 mm | mean wheal diameter ([1]; individual 3): 0 mm | mean wheal diameter ([1]; individual 4): 0 mm | mean wheal diameter ([1]; individual 5): 0 mm | mean wheal diameter ([1]; individual 6 (allergic, without birch pollen allergy)): 0 mm | IgE (OD) ([2]; serum of NHS, non-allergic control individual): — (Dashes indicate reactivities below the cut-off level (OD=0.050)) | IgE (OD) ([2]; serum of patient 1): — (Dashes indicate reactivities below the cut-off level (OD=0.050)) | IgE (OD) ([2]; serum of patient 2): — (Dashes indicate reactivities below the cut-off level (OD=0.050)) | IgE (OD) ([2]; serum of patient 3): — (Dashes indicate reactivities below the cut-off level (OD=0.050)) | IgE (OD) ([2]; serum of patient 4): — (Dashes indicate reactivities below the cut-off level (OD=0.050)) | IgE (OD) ([2]; serum of patient 5): — (Dashes indicate reactivities below the cut-off level (OD=0.050)) | IgE (OD) ([2]; serum of patient 6): — (Dashes indicate reactivities below the cut-off level (OD=0.050)) | IgE (OD) ([2]; serum of patient 7): — (Dashes indicate reactivities below the cut-off level (OD=0.050)) | IgE (OD) ([2]; serum of patient 8): — (Dashes indicate reactivities below the cut-off level (OD=0.050)) | IgE (OD) ([2]; serum of patient 9): — (Dashes indicate reactivities below the cut-off level (OD=0.050)) | IgE (OD) ([2]; serum of patient 10): — (Dashes indicate reactivities below the cut-off level (OD=0.050)) | IgE (OD) ([2]; serum of patient 11): — (Dashes indicate reactivities below the cut-off level (OD=0.050)) | IgE (OD) ([2]; serum of patient 12): — (Dashes indicate reactivities below the cut-off level (OD=0.050)) | IgE (OD) ([2]; serum of patient 13): — (Dashes indicate reactivities below the cut-off level (OD=0.050)) | IgE (OD) ([2]; serum of patient 14): — (Dashes indicate reactivities below the cut-off level (OD=0.050)) | IgE (OD) ([2]; serum of patient 15): — (Dashes indicate reactivities below the cut-off level (OD=0.050)) | IgE (OD) ([2]; serum of patient 16): — (Dashes indicate reactivities below the cut-off level (OD=0.050)) | IgE (OD) ([2]; serum of patient 17): — (Dashes indicate reactivities below the cut-off level (OD=0.050)) | IgE (OD) ([2]; serum of patient 18): — (Dashes indicate reactivities below the cut-off level (OD=0.050)) | IgE (OD) ([2]; serum of patient 19): — (Dashes indicate reactivities below the cut-off level (OD=0.050)) | IgE (OD) ([2]; serum of patient 20): — (Dashes indicate reactivities below the cut-off level (OD=0.050)) | IgE (OD) ([2]; serum of patient 21): — (Dashes indicate reactivities below the cut-off level (OD=0.050)) | IgE (OD) ([2]; serum of patient 22): — (Dashes indicate reactivities below the cut-off level (OD=0.050)) | IgE (OD) ([2]; serum of patient 23): — (Dashes indicate reactivities below the cut-off level (OD=0.050)) | IgE (OD) ([2]; serum of patient 24): — (Dashes indicate reactivities below the cut-off level (OD=0.050)) | IgE (OD) ([2]; serum of patient 25): — (Dashes indicate reactivities below the cut-off level (OD=0.050)) | IgE (OD) ([2]; serum of patient 26): — (Dashes indicate reactivities below the cut-off level (OD=0.050)) | IgE (OD) ([2]; serum of patient 27): — (Dashes indicate reactivities below the cut-off level (OD=0.050)) | IgE (OD) ([2]; serum of patient 28): — (Dashes indicate reactivities below the cut-off level (OD=0.050)) | IgE (OD) ([2]; serum of patient 29): — (Dashes indicate reactivities below the cut-off level (OD=0.050)) | IgE (OD) ([2]; serum of patient 30): — (Dashes indicate reactivities below the cut-off level (OD=0.050)) | IgE (OD) ([2]; serum of patient 31): — (Dashes indicate reactivities below the cut-off level (OD=0.050)) | IgE (OD) ([2]; serum of patient 32): — (Dashes indicate reactivities below the cut-off level (OD=0.050)) | IgE (OD) ([2]; serum of patient 33): — (Dashes indicate reactivities below the cut-off level (OD=0.050)) | IgE (OD) ([2]; serum of patient 34): — (Dashes indicate reactivities below the cut-off level (OD=0.050)) | IgE (OD) ([2]; serum of patient 35): — (Dashes indicate reactivities below the cut-off level (OD=0.050)) | IgE (OD) ([2]; serum of patient 36): — (Dashes indicate reactivities below the cut-off level (OD=0.050)) | IgE (OD) ([2]; serum of patient 37): — (Dashes indicate reactivities below the cut-off level (OD=0.050)) | IgE (OD) ([2]; serum of patient 38): — (Dashes indicate reactivities below the cut-off level (OD=0.050)) | IgE (OD) ([2]; serum of patient 39): — (Dashes indicate reactivities below the cut-off level (OD=0.050)) | IgE (OD) ([2]; serum of patient 40): — (Dashes indicate reactivities below the cut-off level (OD=0.050)) | IgE (OD) ([2]; serum of patient 41): — (Dashes indicate reactivities below the cut-off level (OD=0.050)) | IgE (OD) ([2]; serum of patient 42): — (Dashes indicate reactivities below the cut-off level (OD=0.050)) | IgE (OD) ([2]; serum of patient 43): — (Dashes indicate reactivities below the cut-off level (OD=0.050)) | IgE (OD) ([2]; serum of patient 44): — (Dashes indicate reactivities below the cut-off level (OD=0.050)) | IgE (OD) ([2]; serum of patient 45): — (Dashes indicate reactivities below the cut-off level (OD=0.050)) | IgE (OD) ([2]; serum of patient 46): — (Dashes indicate reactivities below the cut-off level (OD=0.050)) | IgE (OD) ([2]; serum of patient 47): — (Dashes indicate reactivities below the cut-off level (OD=0.050)) | IgE (OD) ([2]; serum of patient 48): — (Dashes indicate reactivities below the cut-off level (OD=0.050)) | IgE (OD) ([2]; serum of patient 49): — (Dashes indicate reactivities below the cut-off level (OD=0.050)) | IgE (OD) ([2]; serum of patient 50): — (Dashes indicate reactivities below the cut-off level (OD=0.050)) | IgE (OD) ([2]; serum of patient 51): — (Dashes indicate reactivities below the cut-off level (OD=0.050)) | IgE (OD) ([2]; serum of patient 52): — (Dashes indicate reactivities below the cut-off level (OD=0.050)) | IgE (OD) ([2]; serum of patient 53): — (Dashes indicate reactivities below the cut-off level (OD=0.050)) | IgE (OD) ([2]; serum of patient 54): — (Dashes indicate reactivities below the cut-off level (OD=0.050)) | IgE (OD) ([2]; serum of patient 55): — (Dashes indicate reactivities below the cut-off level (OD=0.050)) | IgE (OD) ([2]; serum of patient 56): — (Dashes indicate reactivities below the cut-off level (OD=0.050)) | IgE (OD) ([2]; serum of patient 57): — (Dashes indicate reactivities below the cut-off level (OD=0.050)) | IgE (OD) ([2]; serum of patient 58): — (Dashes indicate reactivities below the cut-off level (OD=0.050)) | IgE (OD) ([2]; serum of patient 59): — (Dashes indicate reactivities below the cut-off level (OD=0.050)) | IgE (OD) ([2]; serum of patient 60): — (Dashes indicate reactivities below the cut-off level (OD=0.050))
